# From paper PMC5712561 (Frontiers in Oncology, 2017)
# Read-outs that look alike come from different tables or passages of the source.
# Assays:
# H1975 cells [1] = assay: Growth inhibition, sulforhodamine B assay, H1975; type: cell-based; conditions: for anticancer activity / effect on cell proliferation: H1975, result in words
# Source text: (§1) Two NSCLC cell lines carrying specific EGFR mutations (HCC827: EGFR sensitizing E746_A750 deletion; H1975: resistance-causing EGFR T790M secondary mutation) were purchased from American Type Culture Collection (ATCC; Manassas, VA, USA). A normal human lung epithelial cell line BEAS-2B was also obtained from ATCC to investigate the potential toxic effect of the tested drugs. HCC827, H1975, and BEAS-2B cells were maintained in RPMI1640 medium supplemented with 10% fetal bovine serum, 100-U/mL streptomycin sulfate, and 100-U/mL penicillin G sulfate, and incubated at 37°C in 5% CO2.
# (§2) Growth inhibitory effects of various drug candidates on the cell lines were evaluated by the sulforhodamine B assay ([32]). Cells were seeded into 96-well tissue culture plates in 100 µL at a plating density of 3,000–5,000 cells/well, and allowed to incubate overnight. The cells were then treated with various drug candidates at a range of concentrations and allowed to incubate at 37°C in 5% CO2 for 72 h. Each drug concentration was tested in quadruplicate and controls were tested in replicates of eight.
# HCC827 cells = assay: Growth inhibition, sulforhodamine B assay, HCC827; type: cell-based; conditions: for anticancer activity / effect on cell proliferation: HCC827, result in words; for IC50: HCC827 (EGFR E746_A750 deletion), 72 h
# Source text: as §1, §2
# [2] = test system: L858R/T790M EGFR-bearing NSCLC cells; conditions: L858R/T790M EGFR-bearing NSCLC cells ref 15; cited from earlier work
# BEAS-2B cells = assay: Cytotoxicity in normal lung epithelial cell line BEAS-2B; type: cell-based, human; conditions: for reduced cell viability: BEAS-2B
# Source text: as §1, §2
# EGFR wild type [3] = assay: Cell-free kinase inhibition assay (ADP-Glo), EGFR wild type; type: biochemical; conditions: wild type IC50 versus L858R IC50
# Description: (§3) Inhibition of tyrosine kinase signaling by the drug candidates identified was examined in a cell-free system by assessing the phosphorylation of a poly-EY (4:1 Glu, Tyr) peptide substrate (for EGFR) with recombinant kinases EGFR^wt, EGFR^L858R, or EGFR^L858R+T790M as described previously ([34]). Inhibition of the recombinant kinases by the drug candidates was evaluated by using the ADP-Glo Kinase assay kit according to the manufacturer’s instruction (Promega, Madison, WI, USA). […] Also, 5 µL of ADP-Glo reagent was then added and incubation continued at room temperature for another 40 min. Afterward, 10 µL of kinase detection reagent was added and the mixture was allowed to incubate at room temperature for 30 min, before the measurement of luminescence by GloMax 20/20 Luminometer (Promega).
# EGFR wild type [4] = target: EGFR wild type (Homo sapiens, UniProt P00533); assay: as above; type: biochemical; conditions: recombinant EGFR wild type, poly-EY substrate
# EGFR wild type (Homo sapiens, UniProt P00533), sequence (P00533 25-1210): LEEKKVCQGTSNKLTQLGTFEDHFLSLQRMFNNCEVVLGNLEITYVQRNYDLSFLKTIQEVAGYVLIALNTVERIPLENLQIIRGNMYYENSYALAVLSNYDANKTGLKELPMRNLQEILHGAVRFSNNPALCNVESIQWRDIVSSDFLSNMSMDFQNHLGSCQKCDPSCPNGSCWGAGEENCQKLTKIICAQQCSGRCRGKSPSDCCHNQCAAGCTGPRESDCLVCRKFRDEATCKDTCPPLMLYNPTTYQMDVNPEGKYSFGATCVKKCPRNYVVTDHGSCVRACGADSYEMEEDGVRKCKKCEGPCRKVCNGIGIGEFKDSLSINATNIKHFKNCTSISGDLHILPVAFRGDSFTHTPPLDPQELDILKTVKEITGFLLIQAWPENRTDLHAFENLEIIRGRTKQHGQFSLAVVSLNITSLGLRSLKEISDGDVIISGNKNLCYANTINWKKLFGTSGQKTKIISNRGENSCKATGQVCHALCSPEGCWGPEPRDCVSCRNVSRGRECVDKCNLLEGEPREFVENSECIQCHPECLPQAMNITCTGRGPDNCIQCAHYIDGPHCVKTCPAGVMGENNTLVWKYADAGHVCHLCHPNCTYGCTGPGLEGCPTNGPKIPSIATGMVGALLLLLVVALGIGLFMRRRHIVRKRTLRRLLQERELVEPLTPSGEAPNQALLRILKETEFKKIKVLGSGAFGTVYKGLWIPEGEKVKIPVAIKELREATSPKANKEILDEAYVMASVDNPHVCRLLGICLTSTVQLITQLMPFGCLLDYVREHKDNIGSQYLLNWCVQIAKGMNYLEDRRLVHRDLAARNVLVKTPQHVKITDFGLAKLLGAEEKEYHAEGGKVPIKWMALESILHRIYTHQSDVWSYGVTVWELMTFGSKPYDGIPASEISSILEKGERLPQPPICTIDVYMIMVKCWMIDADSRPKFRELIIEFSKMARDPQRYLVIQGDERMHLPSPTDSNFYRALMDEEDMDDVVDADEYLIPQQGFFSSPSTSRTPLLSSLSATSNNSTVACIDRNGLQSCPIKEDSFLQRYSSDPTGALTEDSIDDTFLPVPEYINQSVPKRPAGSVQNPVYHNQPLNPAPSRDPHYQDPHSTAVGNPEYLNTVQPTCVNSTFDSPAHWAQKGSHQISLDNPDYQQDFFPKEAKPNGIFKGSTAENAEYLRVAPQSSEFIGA
# Description: as §3
# EGFR L858R = EGFR L858R (Homo sapiens, UniProt P00533, L858R); assay: Cell-free kinase inhibition assay (ADP-Glo), EGFR L858R; type: biochemical; conditions: recombinant EGFR L858R, poly-EY substrate
# EGFR L858R, sequence (P00533 25-1210 L858R): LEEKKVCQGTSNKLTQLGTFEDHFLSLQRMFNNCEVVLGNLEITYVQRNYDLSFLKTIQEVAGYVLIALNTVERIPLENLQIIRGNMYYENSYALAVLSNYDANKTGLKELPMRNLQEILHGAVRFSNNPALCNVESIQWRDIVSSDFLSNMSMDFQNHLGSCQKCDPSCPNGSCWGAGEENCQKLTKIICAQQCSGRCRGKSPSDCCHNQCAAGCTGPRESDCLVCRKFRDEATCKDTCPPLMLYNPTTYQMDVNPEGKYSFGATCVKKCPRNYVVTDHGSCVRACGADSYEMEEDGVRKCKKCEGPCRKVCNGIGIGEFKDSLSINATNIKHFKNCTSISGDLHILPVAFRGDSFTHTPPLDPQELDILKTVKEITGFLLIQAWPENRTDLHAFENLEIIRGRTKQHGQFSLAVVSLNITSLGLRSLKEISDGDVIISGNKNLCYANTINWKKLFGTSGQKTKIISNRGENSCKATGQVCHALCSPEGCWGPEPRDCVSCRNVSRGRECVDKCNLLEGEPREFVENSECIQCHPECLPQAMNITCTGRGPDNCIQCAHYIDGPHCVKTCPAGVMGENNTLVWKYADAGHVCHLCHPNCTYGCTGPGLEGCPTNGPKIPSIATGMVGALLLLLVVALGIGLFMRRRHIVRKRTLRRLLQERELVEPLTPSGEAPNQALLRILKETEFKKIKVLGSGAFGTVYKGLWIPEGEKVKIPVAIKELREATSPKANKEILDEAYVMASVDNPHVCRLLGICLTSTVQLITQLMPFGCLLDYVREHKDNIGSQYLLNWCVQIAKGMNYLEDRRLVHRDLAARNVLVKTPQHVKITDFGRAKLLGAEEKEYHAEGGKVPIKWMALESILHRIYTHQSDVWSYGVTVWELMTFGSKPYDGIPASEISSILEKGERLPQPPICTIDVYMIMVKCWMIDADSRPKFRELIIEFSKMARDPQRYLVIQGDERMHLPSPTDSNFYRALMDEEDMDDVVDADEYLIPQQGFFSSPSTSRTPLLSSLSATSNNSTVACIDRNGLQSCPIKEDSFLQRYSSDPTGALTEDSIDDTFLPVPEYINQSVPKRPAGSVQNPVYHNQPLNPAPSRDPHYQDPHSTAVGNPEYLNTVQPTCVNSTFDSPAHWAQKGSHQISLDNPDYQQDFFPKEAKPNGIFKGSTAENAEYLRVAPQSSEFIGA
# Description: as §3
# [5] = test system: phosphorylation of Akt and ERK; assay: Western blot, phosphorylation of Akt and ERK in HCC827 and H1975 cells; type: cell-based; conditions: H1975 compared with HCC827, 4 h, result in words
# Description: (§4) Non-small cell lung cancer (HCC827, H1975) cell lines were treated with the tested drug candidates for the designated time (4 h). The cells were then harvested for Western blot analysis in lysis buffer (0.05-M HEPES pH 7.4, 0.15-M NaCl, 2-mM EDTA, 10% v/v glycerol, 1% v/v Triton X-100) supplemented with protease and phosphatase inhibitor cocktail (Thermo Scientific). Whole cell lysates were separated by SDS-PAGE and subjected to immunoblot analysis with the respective antibodies [total EGFR, phosphor-EGFR (Y845), phosphor-ERK1/2 (Thr177/Thr160), ERK1/2, phosphor-Akt, total Akt, and GAPDH (Santa Cruz Biotechnology, Santa Cruz, CA, USA)]. Primary antibody incubation was carried out at 4°C overnight in 5% bovine serum albumin/phosphate-buffered saline-Tween 20. Afterward, the membranes were incubated with HRP-conjugated donkey anti-mouse/anti-rabbit secondary antibody at room temperature for 1 h, and developed using the WesternBright Quantum chemiluminescence detection system (Advansta Corporation, Menlo Park, CA, USA). Anti-GAPDH antibody was used as the loading control (Santa Cruz Biotech, Santa Cruz, CA, USA). Digital chemiluminescence images were captured and quantified by using the FluorChem Q Imaging System (Alpha Innotech Corporation, Santa Clara, CA, USA).
# PUMA = assay: Western blot, induction of PUMA in HCC827 and H1975 cells; type: cell-based; conditions: H1975 compared with HCC827, result in words
# EGFR phosphorylation = assay: Western blot, EGFR autophosphorylation in HCC827 and H1975 cells; type: cell-based; conditions: H1975 compared with HCC827, 4 h, result in words
# Description: as §4
# H1975 cells [6] = assay: Annexin V apoptosis assay; type: cell-based; conditions: for induction of apoptosis: H1975, 48 h, result in words; for proportion of apoptotic cells: 48 h
# Description: Cells were grown on a 60-mm tissue culture dish at a density of about 5.0 × 10^5 cells/well. […] At the end of the treatment, both floating and attached cells were collected and washed twice with ice-cold phosphate buffer solution. The extent of apoptosis was determined by using the APC annexin-V apoptosis kit (BD Bioscience, San Jose, CA, USA) according to the manufacturer’s instructions. Cells positive for both annexin V and 7-AAD were considered apoptotic.
# EGFR L858R/T790M = EGFR L858R/T790M (Homo sapiens, UniProt P00533, L858R/T790M); assay: Cell-free kinase inhibition assay (ADP-Glo), EGFR L858R/T790M; type: biochemical; conditions: for Fold difference from L858R value: L858R/T790M IC50 versus L858R IC50; for IC50: recombinant EGFR L858R/T790M, poly-EY substrate
# EGFR L858R/T790M, sequence (P00533 25-1210 T790M/L858R): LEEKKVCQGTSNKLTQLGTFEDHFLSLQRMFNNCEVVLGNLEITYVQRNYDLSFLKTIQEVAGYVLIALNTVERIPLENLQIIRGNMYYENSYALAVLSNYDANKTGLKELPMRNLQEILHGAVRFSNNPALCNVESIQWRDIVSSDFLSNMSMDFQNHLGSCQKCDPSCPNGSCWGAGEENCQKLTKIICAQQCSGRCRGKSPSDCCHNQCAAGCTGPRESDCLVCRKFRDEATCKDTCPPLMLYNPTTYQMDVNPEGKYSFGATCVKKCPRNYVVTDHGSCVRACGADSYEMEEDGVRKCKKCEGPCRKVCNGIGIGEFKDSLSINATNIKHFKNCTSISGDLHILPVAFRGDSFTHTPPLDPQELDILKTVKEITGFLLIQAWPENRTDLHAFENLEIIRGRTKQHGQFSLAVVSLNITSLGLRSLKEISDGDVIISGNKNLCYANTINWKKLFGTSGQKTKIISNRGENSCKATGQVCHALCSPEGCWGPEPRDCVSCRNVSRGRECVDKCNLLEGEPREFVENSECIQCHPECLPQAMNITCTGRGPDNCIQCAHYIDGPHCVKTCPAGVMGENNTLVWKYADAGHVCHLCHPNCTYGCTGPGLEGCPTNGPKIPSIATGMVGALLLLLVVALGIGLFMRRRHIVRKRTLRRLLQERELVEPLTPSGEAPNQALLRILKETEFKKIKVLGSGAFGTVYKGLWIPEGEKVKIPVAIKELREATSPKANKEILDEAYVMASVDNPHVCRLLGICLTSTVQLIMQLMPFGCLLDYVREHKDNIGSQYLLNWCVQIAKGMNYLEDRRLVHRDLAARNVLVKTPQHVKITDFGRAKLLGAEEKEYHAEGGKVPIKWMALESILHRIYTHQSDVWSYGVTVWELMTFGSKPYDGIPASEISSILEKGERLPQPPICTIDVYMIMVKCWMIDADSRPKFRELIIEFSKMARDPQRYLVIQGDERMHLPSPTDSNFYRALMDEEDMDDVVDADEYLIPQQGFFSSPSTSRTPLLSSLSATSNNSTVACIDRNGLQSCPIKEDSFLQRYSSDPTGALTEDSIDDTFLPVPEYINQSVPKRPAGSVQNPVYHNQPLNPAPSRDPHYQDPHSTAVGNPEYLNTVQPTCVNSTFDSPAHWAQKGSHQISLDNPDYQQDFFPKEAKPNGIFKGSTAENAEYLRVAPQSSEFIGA
# Description: as §3
# [7] = test system: phosphorylation of EGFR, Akt, and ERK; assay: Western blot, drug combination, phosphorylation of EGFR, Akt and ERK in H1975 cells; type: cell-based; conditions: H1975, gefitinib 10 µM, indacaterol 10 µM, alone or concomitant, 4 h, result in words
# [8] = H1975 (EGFR L858R/T790M), 72 h, read-out: IC50
# [9] = highest concentration tested 100 µM
structure (smiles),measurement,setting,value
O=C(c1ccc(F)cc1)C1CCN(CCn2c(=O)[nH]c3ccccc3c2=O)CC1 [Ketanserin],anticancer activity / effect on cell proliferation,H1975 cells [1],negative
same,anticancer activity / effect on cell proliferation,HCC827 cells,negative
C=CC(=O)Nc1cc(Nc2nccc(-c3cn(C)c4ccccc34)n2)c(OC)cc1N(C)CCN(C)C [osimertinib],IC50,[2],~11 nM
C#Cc1cccc(Nc2ncnc3cc(OCCOC)c(OCCOC)cc23)c1 [Erlotinib],IC50,"H1975 cells [1]; Homo sapiens, NCI-H1975, 72 h",8.2 ± 2.1 µM
same,IC50,"BEAS-2B cells; Homo sapiens, BEAS-2B normal lung epithelial cells",~20 µM
Cc1ccc([C@@H]2O[C@H](CO)[C@@H](O)[C@H](O)[C@H]2O)cc1Cc1ccc(-c2ccc(F)cc2)s1 [Canagliflozin],Fold difference from L858R value,EGFR wild type [3],2.2
same,IC50,EGFR wild type [4],795 ± 49.6 nM
same,IC50,H1975 cells [1]; [8],25.5 ± 3.1 µM
same,anticancer activity / effect on cell proliferation,H1975 cells [1],exhibit anticancer activity
same,IC50,EGFR L858R,368 ± 29.6 nM
same,IC50,HCC827 cells,45.4 ± 2.9 µM
same,anticancer activity / effect on cell proliferation,HCC827 cells,exhibit anticancer activity
same,inhibition of phosphorylation of Akt and ERK,[5],more remarkably in H1975 than in HCC827
same,reduced cell viability,BEAS-2B cells; [9],less than 20%
same,induction of PUMA,PUMA,more pronounced induction of PUMA in H1975 cells than in HCC827 cells
same,inhibition of EGFR phosphorylation,EGFR phosphorylation,more potently in H1975 than in HCC827 cells
same,induction of apoptosis,H1975 cells [6],induce apoptosis in a concentration-dependent manner
same,Fold difference from L858R value,EGFR L858R/T790M,0.7
same,IC50,EGFR L858R/T790M,261 ± 24.4 nM
OCCN1CCN(CC/C=C2/c3ccccc3Sc3ccc(C(F)(F)F)cc32)CC1 [Cis-flupenthixol],Fold difference from L858R value,EGFR wild type [3],2.2
same,IC50,EGFR wild type [4],186 ± 21.5 nM
same,anticancer activity / effect on cell proliferation,H1975 cells [1],exhibit anticancer activity
same,IC50,EGFR L858R,83 ± 5.2 nM
same,anticancer activity / effect on cell proliferation,HCC827 cells,exhibit anticancer activity
same,reduced cell viability,BEAS-2B cells; highest concentration tested 20 µM,less than 20%
same,inhibition of EGFR phosphorylation,EGFR phosphorylation,similarly in both H1975 and HCC827 cells
same,induction of apoptosis,H1975 cells [6],induce apoptosis in a concentration-dependent manner
same,Fold difference from L858R value,EGFR L858R/T790M,1.1
same,IC50,EGFR L858R/T790M,94 ± 11.2 nM
CCc1cc2c(cc1CC)CC(NC[C@H](O)c1ccc(O)c3[nH]c(=O)ccc13)C2 [Indacaterol],Fold difference from L858R value,EGFR wild type [3],3.4
same,IC50,EGFR wild type [4],792 ± 43.2 nM
same,IC50,H1975 cells [1]; [8],~14 µM
same,anticancer activity / effect on cell proliferation,H1975 cells [1],exhibit anticancer activity
same,IC50,"H1975 cells [1]; Homo sapiens, NCI-H1975, 72 h, H1975 (EGFR L858R/T790M), 72 h, read-out: IC50",14.3 ± 2.2 µM
same,IC50,EGFR L858R,232 ± 36.5 nM
same,anticancer activity / effect on cell proliferation,HCC827 cells,exhibit anticancer activity
same,IC50,HCC827 cells; Homo sapiens,41.5 ± 3.9 µM
same,"inhibition of phosphorylation of EGFR, Akt, and ERK",[7],mildly
same,inhibition of phosphorylation of Akt and ERK,[5],more remarkably in H1975 than in HCC827
same,reduced cell viability,BEAS-2B cells; [9],less than 20%
same,induction of PUMA,PUMA,more pronounced induction of PUMA in H1975 cells than in HCC827 cells
same,inhibition of EGFR phosphorylation,EGFR phosphorylation,more potently in H1975 than in HCC827 cells
same,induction of apoptosis,H1975 cells [6],induce apoptosis in a concentration-dependent manner
same,proportion of apoptotic cells,"H1975 cells [6]; H1975, indacaterol alone 5 µM",9.7 ± 1.8%
same,Fold difference from L858R value,EGFR L858R/T790M,0.4
same,IC50,EGFR L858R/T790M,103 ± 14 nM
COc1cc2ncnc(Nc3ccc(F)c(Cl)c3)c2cc1OCCCN1CCOCC1 [Gefitinib],proportion of apoptotic cells,"H1975 cells [6]; H1975, gefitinib alone 4 µM",6.9 ± 1.2%
CCCc1nn(C)c2c(=O)[nH]c(-c3cc(S(=O)(=O)N4CCN(C)CC4)ccc3OCC)nc12 [Sildenafil],anticancer activity / effect on cell proliferation,H1975 cells [1],negative
same,anticancer activity / effect on cell proliferation,HCC827 cells,negative
